The results in this text go back to US20250018014A1, “METHOD FOR TREATING AND/OR PREVENTING REGNASE-1-RELATED DISEASE” (OSAKA UNIVERSITY, priority 2018, published 2025).

The structures appear in SMILES notation. Residues, ends and D or L forms follow the SMILES beside them.

One assay has as its target T1, ΔCTD_Reg1 (amino acids 1 to 546 of human Regnase-1) phosphorylation by TBK1 (Homo sapiens, UniProt Q5D1E8).
T1 construct: made in house; host or cells: Expi293 cells
T1 sequence (Q5D1E8 1-546): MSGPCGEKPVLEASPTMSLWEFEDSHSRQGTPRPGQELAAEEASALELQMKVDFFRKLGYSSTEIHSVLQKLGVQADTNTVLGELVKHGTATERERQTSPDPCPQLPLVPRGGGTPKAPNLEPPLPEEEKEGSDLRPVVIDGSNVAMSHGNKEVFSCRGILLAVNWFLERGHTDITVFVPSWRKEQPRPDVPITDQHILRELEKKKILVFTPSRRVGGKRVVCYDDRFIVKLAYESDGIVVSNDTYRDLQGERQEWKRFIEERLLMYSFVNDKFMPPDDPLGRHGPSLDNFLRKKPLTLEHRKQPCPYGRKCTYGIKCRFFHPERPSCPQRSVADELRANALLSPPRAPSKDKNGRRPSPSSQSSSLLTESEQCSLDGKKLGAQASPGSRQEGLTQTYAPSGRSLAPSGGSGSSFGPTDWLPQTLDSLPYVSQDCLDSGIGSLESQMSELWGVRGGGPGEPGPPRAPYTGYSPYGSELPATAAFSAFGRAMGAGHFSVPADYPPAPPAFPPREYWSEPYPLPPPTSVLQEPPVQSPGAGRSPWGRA
Put plainly: Regnase-1 phosphorylation inhibition by compounds (AlphaScreen), TBK1, CTD-deficient Regnase-1. The class given is biochemical. The settings on record: Table 13; phosphorylation by TBK1; read-out: Phosphorylation inhibition ΔCTD_Reg1, 50% inhibition concentration (TBK1). An excerpt: (§1) The full-length sequence of human Regnase-1 (UniProt ID: Q5D1E8) was used to prepare a construct having a FLAG tag on the N-terminal side and a recognition sequence for biotin ligase BirA on the C-terminal side (FL_Reg1) as a target protein. The above-mentioned Regnase-1 was expressed in mammalian Expi293 cells, purified with FLAG M2 agarose, and isolated by gel filtration chromatography. When biotinylation was required, methods from nonpatent documents (BMC biotechnology, 2008,8,41; and Protein Science, 1999,8,921-929) were used.
(§2) Among the full-length human Regnase-1 sequence, the 1st to 546th amino acid sequence was prepared and made into a construct having a FLAG tag on the N-terminal side and a biotin ligase BirA recognition sequence on the C-terminal side (herein, a Regnase-1 lacking the C-terminal domain of Regnase-1 (amino acids 547 to 599 in the case of SEQ ID NO: 2) is referred to as “ΔCTD_Reg1”. “ΔCTD_Reg1” is different from “Regnase-1ΔCTD”, which is a C-terminal domain deletion variant resulting from a frameshift mutation caused by a 1 bp deletion at codon 517, as prepared in Example 13). In addition, the sequence from amino acids 301 to 599 of the full-length human Regnase-1 sequence was designated as C-terminal Regnase-1, and a construct having a FLAG tag on the N-terminal side and a recognition sequence for biotin ligase BirA on the C-terminal side was prepared (Reg1_301-599). The above-mentioned Regnase-1 was expressed in mammalian Expi293 cells, purified with FLAG M2 agarose, and isolated by gel filtration chromatography. When biotinylation was required, methods of nonpatent documents (BMC biotechnology, 2008,8,41; and Protein Science, 1999,8,921-929) were used.
(§3) Using Kinase assay buffer III (manufactured by SignalChem) supplemented with 2 mM DTT, 100 μM sodium vanadate, and 2 mM manganese chloride, kinase (IKKβ (manufactured by SignalChem) or TBK1 (manufactured by SignalChem)) and Regnase-1 were reacted in the presence of 10 μM ATP at room temperature for 2 hours to perform a phosphorylation reaction.
(§4) Phosphorylated Regnase-1 was detected by the AlphaScreen system. After each of the above-mentioned phosphorylated Regnase-1 antibodies was added and reacted at room temperature for one hour, anti-FLAG AlphaLISA Acceptor Beads (manufactured by PerkinElmer) and Protein A AlphaScreen Donor Beads (manufactured by PerkinElmer) were added, and EnVision (manufactured by PerkinElmer) was used to measure the excited luminescence. As a result, phosphorylated Regnase-1 produced by the phosphorylation reaction by kinase was specifically detected, and signals were confirmed to be enhanced in a manner dependent on Regnase-1 and kinase concentrations (FIG. 24).
(§5) After mixing 2 nM of the above-mentioned Regnase-1 and the compound, phosphorylated Regnase-1 produced by the phosphorylation reaction was detected by the AlphaScreen system. As the results, the inhibition rate was calculated from the signals obtained when adding the compound at each concentration, by defining the signal obtained with Regnase-1 alone to be 100% inhibition rate, and the signal obtained when the same amount of solvent (DMSO) is added in place of the compound as 0% inhibition rate. The 50% inhibition concentration (μM) was calculated from the obtained dose response curve (Table 11).
(In general: Bead proximity is the source of the signal in Alpha formats.)
With `CC[C@H](C)[C@@H]1NC(=O)[C@H](CC(=O)O)NC(=O)[C@H](C)N(C)C(=O)C[C@@H](C(=O)N2CCCC2)NC(=O)[C@H](Cc2c[nH]c3ccccc23)NC(=O)[C@H](CC(=O)O)NC(=O)[C@H](Cc2c[nH]c3ccccc23)NC(=O)[C@H](Cc2ccc(O)cc2)NC(=O)[C@H](CC(=O)O)NC(=O)[C@H](Cc2ccccc2)NC(=O)[C@H](Cc2c[nH]c3ccccc23)NC1=O` [PP17] (HELM PEPTIDE1{[meA].D.I.W.F.D.Y.W.D.W.D.[C1CCN([*:1])C1]}$PEPTIDE1,PEPTIDE1,1:R1-11:R3$$$V2.0), the IC50 was 0.3 µM.

For another assay, the target named is T2, Reg1_301-599 (amino acids 301-599 of human Regnase-1) phosphorylation by TBK1 (Homo sapiens, UniProt Q5D1E8).
T2 construct: made in house; host or cells: Expi293 cells
T2 sequence (Q5D1E8 301-599): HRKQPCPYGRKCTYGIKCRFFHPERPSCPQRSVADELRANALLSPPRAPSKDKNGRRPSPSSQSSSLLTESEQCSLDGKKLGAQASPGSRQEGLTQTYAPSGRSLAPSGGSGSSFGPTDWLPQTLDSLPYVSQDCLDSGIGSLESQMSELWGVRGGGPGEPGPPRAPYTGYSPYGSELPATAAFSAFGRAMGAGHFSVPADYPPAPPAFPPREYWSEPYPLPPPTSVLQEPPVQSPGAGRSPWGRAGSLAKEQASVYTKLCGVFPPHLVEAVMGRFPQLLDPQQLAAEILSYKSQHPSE
The experiment in a line: Regnase-1 phosphorylation inhibition by compounds (AlphaScreen), TBK1, C-terminal Regnase-1. The settings on record: Table 13, read-out: Phosphorylation inhibition Reg1_301-599, 50% inhibition concentration (TBK1). Format: biochemical. The method, then:
as §2, §3, §4, §5
In the case of `CC[C@H](C)[C@@H]1NC(=O)[C@H](CC(N)=O)NC(=O)[C@H](Cc2ccc(O)cc2)NC(=O)[C@H](Cc2c[nH]c3ccccc23)NC(=O)[C@H](CO)NC(=O)[C@H](CC(N)=O)NC(=O)[C@H](CO)NC(=O)[C@H](Cc2ccccc2)NC(=O)[C@H](CC(N)=O)NC(=O)[C@H](C)N(C)C(=O)C[C@@H](C(=O)N2CCCC2)NC(=O)[C@H](Cc2c[nH]c3ccccc23)NC1=O` [PP16] (HELM PEPTIDE1{[meA].N.F.S.N.S.W.Y.N.I.W.D.[C1CCN([*:1])C1]}$PEPTIDE1,PEPTIDE1,1:R1-12:R3$$$V2.0), the IC50 was more than 62.1 µM.
Still for that read-out and setting: the value for `CC[C@H](C)[C@@H]1NC(=O)[C@H](CC(=O)O)NC(=O)[C@H](C)N(C)C(=O)C[C@@H](C(=O)N2CCCC2)NC(=O)[C@H](Cc2c[nH]c3ccccc23)NC(=O)[C@H](CC(=O)O)NC(=O)[C@H](Cc2c[nH]c3ccccc23)NC(=O)[C@H](Cc2ccc(O)cc2)NC(=O)[C@H](CC(=O)O)NC(=O)[C@H](Cc2ccccc2)NC(=O)[C@H](Cc2c[nH]c3ccccc23)NC1=O` [PP17] (HELM PEPTIDE1{[meA].D.I.W.F.D.Y.W.D.W.D.[C1CCN([*:1])C1]}$PEPTIDE1,PEPTIDE1,1:R1-11:R3$$$V2.0) was less than 0.06 µM; that for `CC[C@H](C)[C@@H]1NC(=O)[C@H](CCCCN)NC(=O)[C@H](Cc2ccc(O)cc2)NC(=O)[C@H](Cc2c[nH]c3ccccc23)NC(=O)[C@H](CO)NC(=O)[C@H](CC(N)=O)NC(=O)[C@H](C)N(C)C(=O)C[C@@H](C(=O)N2CCCC2)NC(=O)[C@H](CC(C)C)NC(=O)CNC(=O)[C@H](Cc2c[nH]c3ccccc23)NC1=O` [PP21] (HELM PEPTIDE1{[meA].N.S.W.Y.K.I.W.G.L.D.[C1CCN([*:1])C1]}$PEPTIDE1,PEPTIDE1,1:R1-11:R3$$$V2.0) was 17 µM.

Another assay has as its target T3, Reg1_301-599 (amino acids 301-599 of human Regnase-1) phosphorylation by IKKβ (Homo sapiens, UniProt Q5D1E8).
T3 construct: made in house; host or cells: Expi293 cells
T3 sequence (Q5D1E8 301-599): T2 sequence (Q5D1E8 301-599)
The experiment in a line: Regnase-1 phosphorylation inhibition by compounds (AlphaScreen), IKKβ, C-terminal Regnase-1. Format: biochemical. The note with it: Table 14, read-out: Phosphorylation inhibition Reg1_301-599, 50% inhibition concentration (IKKβ).
Description: as §1, §2, §3, §4, §5
As to `CC[C@H](C)[C@@H]1NC(=O)[C@H](CCCCN)NC(=O)[C@H](Cc2ccc(O)cc2)NC(=O)[C@H](Cc2c[nH]c3ccccc23)NC(=O)[C@H](CO)NC(=O)[C@H](CO)NC(=O)[C@H]([C@@H](C)O)NC(=O)[C@@H]2CCCN2C(=O)[C@@H](C)N(C)C(=O)C[C@@H](C(=O)N2CCCC2)NC(=O)[C@H](Cc2c[nH]c3ccccc23)NC1=O` [PP23] (HELM PEPTIDE1{[C[C@H](C(=O)[*:2])N(C)[*:1]].P.T.S.S.W.Y.K.I.W.D.[C1CCN([*:1])C1]}$PEPTIDE1,PEPTIDE1,1:R1-11:R3$$$V2.0), the IC50 is more than 62.1 µM.
In the case of `CC[C@H](C)[C@@H]1NC(=O)[C@H](CCCNC(=N)N)NC(=O)[C@H](Cc2ccc(O)cc2)NC(=O)[C@H](Cc2c[nH]c3ccccc23)NC(=O)[C@H](CO)NC(=O)[C@H](CC(N)=O)NC(=O)[C@H](C)N(C)C(=O)C[C@@H](C(=O)N2CCCC2)NC(=O)[C@H](CC(C)C)NC(=O)CNC(=O)[C@H](Cc2c[nH]c3ccccc23)NC1=O` [PP22] (HELM PEPTIDE1{[meA].N.S.W.Y.R.I.W.G.L.D.[C1CCN([*:1])C1]}$PEPTIDE1,PEPTIDE1,1:R1-11:R3$$$V2.0), the IC50 turned out to be 31 µM.
